In patent US20070105162A1, “Monovalent avidin and streptavidin compositions” (Massachusetts Institute of Technology, priority 2005, published 2007):

Columns and labels:
[1] = Electrospray ionization mass spectrometry: biotin molecules bound per streptavidin tetramer; type: binding; conditions: for # biotins (bound to each tetramer): from mass change upon addition of biotin, 30 μM protein, 200 μM biotin; for biotin binding per tetramer by mass spectrometry (in words): spectra with or without biotin
Procedure: Biospin columns (Bio-Rad) were equilibrated by spinning 5 times in 500 μL of 15 mM ammonium acetate pH 7.8 at 1000 g for 2 min. Then 30-50 μL of 30 μM protein in PBS was buffer-exchanged into 15 mM ammonium acetate pH 7.8 using the pre-equilibrated Biospin columns by spinning for 20 s at 1000 g. To ensure that PBS was completely removed, the flow-through was again buffer-exchanged with a second pre-equilibrated column for 20 s. This procedure also removed free biotin when the starting 30 μM streptavidin forms were incubated with 200 μM biotin. Less than 2 min before introducing into the mass spectrometer, the buffer-exchanged samples were diluted with a solution of 1:1 15 mM ammonium acetate pH 7.8 and 78% acetonitrile, 0.01% trifluoroacetic acid.
An Advion nanospray robot (Advion BioSystems, Ithica, N.Y.) with a back-pressure of 0.45 Psi introduced the samples into the mass spectrometer, an 8.5 Tesla custom-built Electrospray Ionisation-Fourier Transform Mass Spectrometer. To visualize the non-covalent tetramers and non-covalent biotin binding in the high m/z range, the following settings were used: Chirp rate=750 Hz, Amplitude=0.5 V p-p, Tube lens=200 V, Capillary heater 2 V, Quad filter=−20 V, Skimmer=0 V, Capillary offset=34 V, X-fer=−110 V, Leak gas=4.2×10^−5 Torr. The capillary heater was kept low and the Quad filter and Skimmer were kept either high or off to prevent subunit dissociation. The transfer was set to this low value of −110 V in order to visualize the high m/z region.
The masses were calculated manually by first determining the charge state. The final mass was determined by multiplying the observed m/z by the charge and subtracting the mass corresponding to the addition of protons to give that charge. For example, for the 15+charge state of D4 an m/z of 3534.159 was obtained. (15×3534.159)-(15×1.00727) gave a mass for this ion of 52,997 Da. This calculation was repeated for each charge state and the mean and standard deviation reported. The spectra were calibrated with tetrameric streptavidin, after its monomer mass was determined under denaturing conditions (Mr=13,271.4 Da). Average masses were predicted from the DNA sequence, using the ExPASy PeptideMass Calculator (ca.expasy.org/tools/peptide-mass.html) and assuming removal of the N-terminal formyl-Methionine.
The different tetramers were purified using a Ni-nitrilotriacetic acid (NTA) column, eluting according to the number of His6-tags with increasing concentrations of imidazole. […] The tetramer composition was further confirmed by boiling the samples before loading on SDS-PAGE, to determine the ratio of A to D subunits (FIG. 1D), and by electrospray ionization mass spectrometry. In Table 1 (Schwartz, B. L. et al., J. of the Amer. Soc. for Mass Spec. 6: 459-465, 1995) the observed mass (±s.d.), determined by Electrospray Ionization-Mass Spectrometry, is compared to the mass predicted from the sequence. From the change (±s.e.m.) upon addition of biotin (mass 244.31), we determined how many biotin molecules were bound to each tetramer.
Electrospray ionization mass spectrometry was used to characterize the number of biotin molecules bound per tetramer. Spectra of the different streptavidin tetramers with or without biotin were acquired. […] The other chimeric tetramers bound one biotin per A subunit.

[2] = system: biotinylated AP-CFP-TM on HeLa cells; assay: Staining of biotinylated AP-CFP-TM on HeLa with Alexa Fluor 568-conjugated avidins; type: cell-based; conditions: avidin, Alexa Fluor 568 conjugate
Procedure: Enzymatic biotinylation and imaging of HeLa transfectants are performed as previously described (Howarth, M. et al., Proc. Natl. Acad. Sci. USA 102: 7583-7588, 2005), except instead of 10 μM biotin and 1 mM ATP, we add 10 μM biotin-AMP (synthesized according to Coleman and Huang; Coleman, T. M. and Huang, F. Chem. Biol. 9: 1227-1236, 2002) to give equivalent biotinylation but minimizing the risk of purinoreceptor activation by ATP (Rathbone, M. P. et al., Prog. Neurobiol. 59: 663-690, 1999). […] Biotinylation of neurons is performed at day in vitro (DIV) 8 in Hanks' Balanced Salt Solution (HBSS) (Invitrogen) with 0.2 μM biotin ligase and 10 μM biotin-AMP for 5 min at 37° C. […] Neurons are washed with NeuroBasal media (Invitrogen) supplemented with B-27 (Invitrogen), 50 U/mL penicillin, 50 μg/mL streptomycin, and 0.2 mM L-glutamine and chased in the same medium for 0 or 2 hr at 37° C. Cells are then fixed in −20° C. methanol. There was no signal from wild-type avidin labeling if neurons were instead transfected with Ala-neuroligin-1 containing a point mutation in AP, confirming the specificity of labeling. […]
Images of HeLa cells are collected on a Zeiss Axiovert 200M inverted epifluorescence microscope using a 40× oil-immersion lens and a MicroMAX CCD camera (Roper Scientific; Tucson, Ariz.). CFP (420DF20 excitation, 450DRLP dichroic, 475DF40 emission) and Alexa568 (560DF20 excitation, 585DRLP dichroic, 605DF30 emission) images are collected and analyzed using OpenLab software (Improvision; Lexington, Mass.). Fluorescence images are background-corrected. […] Images are scaled to 16 bits and analyzed in Northern Eclipse (Empix Imaging; Ontario, Canada) with user-written software. […] Results are then calculated in terms of clusters per micrometer of dendrite. For assessment of pre-synaptic terminals, clusters are determined as before and average grey levels of clusters are compared between transfected dendrites and untransfected dendrites within the same field of view. […] “n” represents the number of transfected neurons for which clusters were measured. […]

Row | biotin binding per tetramer by mass spectrometry (in words) [1] | Substance | # biotins (bound to each tetramer) [1] | Alexa staining of biotinylated AP-CFP-TM [2]
1 | single biotin | A1D3: Monovalent streptavidin tetramer: one His6-tagged wild-type (A) subunit and three dead (D) subunits [Tetramer A1D3] | 1 | detected equally well
2 | No biotin binding | D4: Streptavidin tetramer with 4 dead subunits (D: N23A, S27D, S45A, SEQ ID NO:3) [Tetramer D4] | 0 | no detectable staining
